The results in this text go back to patent US20260234144A1 (TAY THERAPEUTICS LIMITED, priority 2023, published 2026).

Bounds are passed on as bounds.

The subject of the assay is R223X stop codon in the mutated luciferase gene, ADXC8 luciferase reporter cell line. As to the kind of experiment: cells. It is filed as cell-based. The settings on record: ADXC8 cells, 24 hours; for Emax / EC (100% of 200 uM G418 response): 24 h; for Emax: read-out: Fold Over Control, maximum fold response relative to 200 μM G418; for EC (100% of 200 uM G418 response): read-out: pC100%, negative logarithm of the concentration giving the same response as 200 μM G418; for pC100%: negative logarithm of the concentration giving the same response as 200 μM G418. The protocol:
The read-through activity of compounds was assessed using the ADXC8 luciferase reporter cell line (generated as described in McElroy et al. PLoS Biology (2013), 11, e1001593). […] The amount of luciferase is measured by adding a lysis buffer containing luciferin substrate and detecting luminescence using the following protocol:
ADXC8 cells in assay media (DMEM+10% FBS) were seeded into 96-well tissue culture treated white plates (Greiner) to a density of 13,000 cells per well and incubated for 24 hours at 37° C. in an atmosphere of 5% CO2. […] Plates were incubated for a further 24 hours at 37° C. in an atmosphere of 5% CO2. Cells treated with 200 μM G418 (with 1% DMSO) were used as a positive control.
Cell viability and firefly luciferase activity were measured in the same assay wells. CellTiter-Fluor™ reagent was prepared as per manufacturer's instructions (Promega E7120) and 20 μl of 5× CellTiter-Fluor™ reagent was added to all wells, briefly mixed by orbital shaking (300-500 rpm for −30 seconds) and the plates incubated for 30-45 minutes at 37° C. in an atmosphere of 5% C02. Cell viability was measured by monitoring fluorescence on a CLARIOstar® plate reader (BMG Labtech). Cells containing 1% DMSO were used as a positive control and cells with 400 μM Doxorubicin were used as negative control to define 100 and 0% respectively. ONE-Glo™ luciferase assay buffer (Promega E7120) was prepared according to manufacturer's instructions and 100 μl of luciferase reagent was added to each well and the plate incubated at RT for 3 mins before measuring the luminescence on the CLARIOstar® plate reader (BMG Labtech). Cells treated with 200 μM G418 (with 1% DMSO) were used as a positive control and arbitrarily assigned a value of 100%. Cells treated with 1% DMSO were used as the negative control to define 0% response.
Concentration effect curves were analysed using non-linear regression using the CDD Vault from Collaborative Drug Discovery (Burlingame, CA). […] The bottom and top of the curves were constrained to 0 and the maximum measured response respectively. From the fitted curves, the software derived C100% values (the concentration giving the same response as 200 μM G418) for each compound. The negative logarithm of C100% is reported as pC100% (Table 1). In addition to pC100% values, the maximum fold response relative to 200 μM G418 (Fold over Control) was also captured (Table 1). A pC100% categorisation of ‘-’ in Table 1 represents examples in which a pC100% response was not reached when assayed at a concentration of 100 μM. A pC100% categorisation of ‘*’ in Table 1 represents examples in which a pC100% response was not reached when assayed at a concentration of 30 μM.

Take `CN1CCC(Nc2nc(N)c3cc(-c4cncn4C)cnc3n2)CC1` [Example 643]: the Emax was 0 to 100% and the EC (100% of 200 uM G418 response) is above 100 µM.
For the compound `CNc1cc(N[C@H]2CNC[C@@H]2O)nc2nc3c(c(C)c12)CCC3` [Example 635], the EC (100% of 200 uM G418 response) was 1 to 10 µM.
On to `CNc1nc(NC2C3CNC2C3)nc2nc(C)cc(C)c12` (single isomer, unassigned) [Example 446], for which the pC100% entry is reported as “++ (pC100% > 5.0 ≤ 6.0)”.
In the case of `Cc1cc(C)c2c(N)nc(NC3CCN(Cc4ccccc4S(C)(=O)=O)CC3)nc2n1` [Example 498], the Emax is 0 to 100% and the EC (100% of 200 uM G418 response) is above 31.6 µM.
In the same order, the values of `Cc1cc(C)c2c(N)nc(NC3CCN(Cc4ccno4)CC3)nc2n1` [Example 501] are 100 to 3000% and 10 to 100 µM.
As for `CNc1nc(NC2CCCN3CCCC23)nc2nc(C)cc(C)c12` (centres unmarked) [Example 597], the pC100% entry is “++ (pC100% > 5.0 ≤ 6.0)”.
Consider `Cc1cc(C)c2c(N)nc(NCCCN(C)c3ccccc3)nc2n1` [Example 147], for which the Emax lay within 0 to 100% and the EC (100% of 200 uM G418 response) was above 31.6 µM.
For `CN1CCC(Nc2nc(N)c3ccc(-c4cccc(CN)c4)nc3n2)CC1` [Example 74], the EC (100% of 200 uM G418 response) lay within 1 to 10 µM.
As for `CN1CCC(Nc2nc(N)c3ccc(-c4ccccc4)nc3n2)CC1` [Example 27, N^2-(1-methylpiperidin-4-yl)-7-phenylpyrido[2,3-d]pyrimidine-2,4-diamine], the Emax lay within 100 to 3000% and the EC (100% of 200 uM G418 response) lay within 1 to 10 µM.
The corresponding values for `Cc1cc(C)c2c(N)nc(NC3CCNCC3(C)C)nc2n1` (centres unmarked) [Example 212] are 100 to 3000% and 1 to 10 µM.
The corresponding values for `Cc1cc(C)c2c(N)nc(NCC3CCNCC3)nc2n1` [Example 141, 5,7-dimethyl-N^2-(piperidin-4-ylmethyl)pyrido[2,3-d]pyrimidine-2,4-diamine] are 100 to 3000% and 10 to 100 µM.
Consider `CNc1nc(NC23CCCN(CC2)C3)nc2nc(C)cc(C)c12` (centres unmarked) [Example 416], for which the Emax fell in the range of 0 to 100% and the EC (100% of 200 uM G418 response) was above 31.6 µM.
Take `CN1CCC(Nc2nc(N)c3ccc(-c4cccc(CO)c4)nc3n2)CC1` [Example 92]: the Emax lay within 100 to 3000% and the EC (100% of 200 uM G418 response) is 10 to 100 µM.
On to `Cc1cc(C)c2c(NCCC(N)=O)nc(NC3CCN(C)CC3)nc2n1` [Example 329], for which the Emax lay within 0 to 100% and the EC (100% of 200 uM G418 response) was above 31.6 µM.
In the same order, the values of `CN1CCC(Nc2nc(N)c3c(O)ccnc3n2)CC1` [Example 244, 4-amino-2-((1-methylpiperidin-4-yl)amino)pyrido[2,3-d]pyrimidin-5-ol] are 0 to 100% and above 100 µM.
As to `CN1CCC(Nc2nc(N)c3ccc(-c4cccc(C(F)(F)F)c4)nc3n2)CC1` [Example 67], the Emax was 100 to 3000% and the EC (100% of 200 uM G418 response) was in the range of 1 to 10 µM.
The corresponding values for `CNc1nc(NC2CNCC23COC3)nc2nc(C)cc(C)c12` (centres unmarked) [Example 410] are 0 to 100% and above 31.6 µM.
On to `CNc1nc(NC2C3CCC2CN(C(C)C)C3)nc2nc(C)cc(C)c12` (single isomer, unassigned) [Example 435], for which the Emax lay within 100 to 3000% and the pC100% entry is “++ (pC100% > 5.0 ≤ 6.0)”.
On to `Cc1cc(C)c2c(N)nc(NC3CCC(N(C)C)CC3)nc2n1` (centres unmarked) [Example 204], for which the Emax was 100 to 3000% and the EC (100% of 200 uM G418 response) was in the range of 1 to 10 µM.
For the compound `Cc1ccccc1-c1ccc2c(N)nc(NC3CCN(C)CC3)nc2n1` [Example 110], the EC (100% of 200 uM G418 response) fell in the range of 1 to 10 µM.
On to `Cc1c2c(nc3nc(NC4CCNCC4)nc(NCCO)c13)CCC2` [Example 510, 2-((5-methyl-2-(piperidin-4-ylamino)-7,8-dihydro-6H-cyclopenta[5,6]pyrido[2,3-d]pyrimidin-4-yl)amino)ethan-1-ol], for which the Emax is 100 to 3000% and the EC (100% of 200 uM G418 response) fell in the range of 0.1 to 1 µM.
In the same order, the values of `COc1ccc(CNc2ccc3c(N)nc(NC4CCN(C)CC4)nc3n2)c(OC)c1` [Example 41, N^7-(2,4-dimethoxybenzyl)-N2-(1-methylpiperidin-4-yl)pyrido[2,3-d]pyrimidine-2,4,7-triamine] are 0 to 100% and above 100 µM.
For `CN1CCC(Nc2nc(N)c3cc(C(F)(F)F)cnc3n2)CC1` [Example 19, N^2-(1-methylpiperidin-4-yl)-6-(trifluoromethyl)pyrido[2,3-d]pyrimidine-2,4-diamine], the Emax fell in the range of 0 to 100% and the EC (100% of 200 uM G418 response) was above 100 µM.
Consider `Cc1cc(C)c2c(N)nc(NC3CCN(Cc4nccs4)CC3)nc2n1` [Example 463], for which the Emax fell in the range of 100 to 3000% and the EC (100% of 200 uM G418 response) lay within 1 to 10 µM.
Take `Cc1cc(C2CCC2)nc2nc(NC3CCN(C)CC3)nc(N)c12` [Example 521, 7-cyclobutyl-5-methyl-N^2-(1-methylpiperidin-4-yl)pyrido[2,3-d]pyrimidine-2,4-diamine]: the EC (100% of 200 uM G418 response) is 1 to 10 µM.
`CN1CCC(Nc2nc(N)c3cc(OC4COC4)cnc3n2)CC1` [Example 28, N^2-(1-methylpiperidin-4-yl)-6-(oxetan-3-yloxy)pyrido[2,3-d]pyrimidine-2,4-diamine]: the Emax was 0 to 100% and the EC (100% of 200 uM G418 response) was above 100 µM.
As for `CN1CCC(Nc2nc(N)c3ccc(-c4ccccc4F)nc3n2)CC1` [Example 88], the EC (100% of 200 uM G418 response) lay within 1 to 10 µM.
`CNc1nc(NC2CCCN3CCCC23)nc2nc(C)cc(C)c12` (centres unmarked) [Example 598]: the Emax was in the range of 100 to 3000% and the pC100% result was “+ (pC100% > 4.0 ≤ 5.0)”.
As for `Cc1cc(C)c2c(N)nc(NCCN3CC4(CCCO4)C3)nc2n1` [Example 167], the Emax lay in the range of 0 to 100% and the EC (100% of 200 uM G418 response) was above 31.6 µM.
For the compound `C=C(C)c1ccnc2nc(NC3CCN(C)CC3)nc(N)c12` [Example 245, N^2-(1-methylpiperidin-4-yl)-5-(prop-1-en-2-yl)pyrido[2,3-d]pyrimidine-2,4-diamine], the Emax was 0 to 100% and the EC (100% of 200 uM G418 response) was above 100 µM.
The corresponding values for `Cc1c2c(nc3nc(NC4CCN(Cc5cn[nH]c5)CC4)nc(N)c13)CCC2` [Example 661] are 100 to 3000% and 1 to 10 µM.
In the same order, the values of `Cc1cc(C)c2c(N)nc(N[C@H]3CN[C@@H](C)C3)nc2n1` [Example 350] are 100 to 3000% and 1 to 10 µM.
The corresponding values for `Cc1cc(C)c2c(N)nc(NC3CCN(Cc4cocn4)CC3)nc2n1` [Example 472] are 100 to 3000% and 1 to 10 µM.
As to `CNc1nc(NC2(CO)CCNC2)nc2nc(C)cc(C)c12` (single isomer, unassigned) [Example 440], the pC100% result was “* (pC100 ≤ 4.5)”. Further, the “Fold Over Control” value (maximum fold response relative to 200 μM G418) is “# (Fold over Ctrl ≥ 0 ≤ 1)”.
Turning to `CC(=O)Nc1cccc(-c2ccc3c(N)nc(NC4CCN(C)CC4)nc3n2)c1` [Example 64], the Emax was in the range of 0 to 100% and the EC (100% of 200 uM G418 response) was above 100 µM.
In the case of `CC(C)c1ccnc2nc(NC3CCN(C)CC3)nc(N)c12` [Example 246, 5-isopropyl-N^2-(1-methylpiperidin-4-yl)pyrido[2,3-d]pyrimidine-2,4-diamine], the Emax lay in the range of 0 to 100% and the EC (100% of 200 uM G418 response) was above 100 µM.
Consider `CN1CCC(Nc2nc(N)c3ccc(-c4ccccc4N(C)C)nc3n2)CC1` [Example 72], for which the Emax is 0 to 100% and the EC (100% of 200 uM G418 response) was above 100 µM.
For `COc1ccc2c(N)nc(NC3CCN(C)CC3)nc2n1` [Example 17, 7-methoxy-N^2-(1-methylpiperidin-4-yl)pyrido[2,3-d]pyrimidine-2,4-diamine], the Emax fell in the range of 100 to 3000% and the EC (100% of 200 uM G418 response) was 10 to 100 µM.
In the case of `COC(C)c1ccnc2nc(NC3CCN(C)CC3)nc(N)c12` (centres unmarked) [Example 252, 5-(1-methoxyethyl)-N^2-(1-methylpiperidin-4-yl)pyrido[2,3-d]pyrimidine-2,4-diamine], the Emax lay within 0 to 100% and the EC (100% of 200 uM G418 response) was above 100 µM.
